Test results as given in patent US20240336604A1 (THE UNITED STATES OF AMERICA, AS REPRESENTED BY THE …, priority 2021, published 2024).
“Also recorded” adds a separate entry of the source.

Tests used:
D2 DAR [1] = biological target: T1, D2 DAR (Homo sapiens, UniProt P14416); assay: ERK1/2 phosphorylation assay, D2 DAR; format: cell-based; set-up: host or cells: CHO; conditions: FIG. 3D right
Method: ERK1/2 Phosphorylation assay: ERK1/2 phosphorylation was measured using the Alphascreen SureFire Ultra ERK kit (PerkinElmer, Waltham, USA). CHO-K1 cells stably expressing either the D2 DAR or D3 DAR were seeded into 384-well small volume white plates at a density of 40,000 cells/well in serum-free Ham's F12 media overnight. […] The plate was shaken for 10 min at RT, followed by the addition of Surefire activation buffer, Surefire reaction buffer, Alphascreen acceptor beads, and Alphascreen donor beads in ratios specified by the manufacturer. The plate was incubated in the dark for 2 h, then read using a PHERAstar FSX Microplate Reader (BMG Labtech).

D3 DAR [2] = biological target: T2, D3 DAR (Homo sapiens, UniProt P35462); assay: Functional curve-shift assays using the DiscoverX β-arrestin recruitment assay; format: cell-based; set-up: host or cells: CHO
T2 sequence (P35462 whole entry): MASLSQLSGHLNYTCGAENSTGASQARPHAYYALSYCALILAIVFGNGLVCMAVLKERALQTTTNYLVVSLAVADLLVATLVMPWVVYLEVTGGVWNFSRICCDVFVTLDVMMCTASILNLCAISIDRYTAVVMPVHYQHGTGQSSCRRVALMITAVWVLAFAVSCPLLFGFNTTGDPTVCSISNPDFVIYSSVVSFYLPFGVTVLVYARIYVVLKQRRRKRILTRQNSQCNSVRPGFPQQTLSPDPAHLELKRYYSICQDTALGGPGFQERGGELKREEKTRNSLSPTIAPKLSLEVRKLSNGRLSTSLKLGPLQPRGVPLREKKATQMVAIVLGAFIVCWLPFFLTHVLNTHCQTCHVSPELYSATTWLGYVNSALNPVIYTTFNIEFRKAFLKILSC
Text: To further assess the mechanism of action of Cmp. […] 1 (FIGS. 4B and 4D). […] Average curves are shown (mean±SEM from at least 3 experiments each performed in triplicate). […] In contrast, increasing concentrations of Cmp.
1. FIG. 6A-C panels show concentration-response curves of dopamine in the absence or presence of increasing concentrations of compound. Cmp. […] 18 (FIG. 6A), Cmp. 5 (FIG. 6B), and Cmp. 17 (FIG. 6C), respectively. Average curves are shown (mean±SEM from at least 3 experiments, each performed in triplicate).
A D3 DAR β-arrestin cell line from DiscoverX (Fremont, CA) was used as described in the protocol below (Table 2). A CHO cell line engineered to overexpress the D3 DAR fused with a small 42-amino acid fragment of β-galactosidase called ProLink™ and a fusion protein consisting of β-arrestin and a larger N-terminal deletion mutant of β-galactosidase was used (DiscoverX catalogue number 93-0579C2). When the D3 DAR is activated by dopamine, it stimulates binding of β-arrestin to ProLink-tagged D3 DARs, and the two complementary parts of β-galactosidase form a functional enzyme. When substrate (PathHunter® Detection reagent, DiscoverX 93-0001) is added, β-galactosidase hydrolyzes it and generates a chemiluminescent signal.

[3] = test system: 45 GPCRs, ion channels, and neurotransmitter transporters; assay: PDSP radioligand binding panel; conditions: 10 μM
Method: Cmp. 1 was tested as both an agonist (FIG. 5A) or an antagonist (FIG. 5B) at a single high concentration (30 μM) on 168 different GPCRs in the DiscoverX gpcrMAX™ β-arrestin recruitment assay panel (FIGS. 5A and 5B). Assay results are presented as the mean percent activation of indicated GPCRs (for n=2 replicates). For a full description of the DiscoverX gpcrMAX™-GPCR assay panel and methods (see: http://www.DiscoverX.com). […] Data were provided by the National Institute of Mental Health (NIMH) Psychoactive Drug Screening Program (PDSP) (University of North Carolina, Chapel Hill, NC). For experimental details including radioligands used and associated Kd values for each individual target, refer to the PDSP website: http://pdsp.med.unc.edu/. While Cmp. […] The 5-HT6 receptor was not present in the functional panels, however, subsequent testing found Cmp.

D2 DAR [4] = biological target: T1, D2 DAR; assay: DiscoverX D2 DAR β-arrestin recruitment assay; format: cell-based; set-up: host or cells: CHO; conditions: EC80 concentration of DA (1 μM)
How it was run: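 CHO cells co-expressing ProLink-tagged D2 DAR and enzyme-acceptor-fused β-arrestin (PathHunter enzyme-fragment complementation). Receptor activation recruits β-arrestin, reconstituting β-galactosidase; detection reagent hydrolysis gives chemiluminescent read-out. Same PathHunter format used for other dopamine receptor subtypes.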

D2 DAR [5] = biological target: T1, D2 DAR; assay: Go BRET activation assay, D2 DAR; format: cell-based; conditions: FIG. 3B right
Method: (§1) Briefly, HEK293T cells transiently expressing either the D2 DAR or D3 DAR and GαoA-Rluc8, untagged-β1, and mVenus-γ2 were harvested with EBSS, plated in 96-well white plates at 20,000 cells/well in DPBS and incubated at RT for 45 min. […] BRET signal was determined by quantifying and calculating the ratio of the light emitted by mVenus (525 nm) over that emitted by RLuc8 (485 nm) using a PHERAstar FSX Microplate Reader (BMG Labtech).

D3 DAR [6] = biological target: T2, D3 DAR; assay: [3H]-methylspiperone radioligand binding assay; conditions: indicated concentrations, FIG. 1B
Method: Compounds were tested for their ability to compete with the orthosteric radioligand [^3H]-methylspiperone for binding to the D3 DAR using HEK cells transiently transfected with the D3 DAR as described in the detailed protocol below presented in Table 5. Cells were cultured in Dulbecco's modified Eagle's Medium (Corning, catalogue no. 10-013) containing 10% FBS, 1,000 units/mL Penicillin, […] Streptomycin, 100 mM sodium pyruvate, 1 μg/mL Gentamicin, and […] G418. All cells were maintained at 37° C. in 5% CO2 and 90% humidity. For radioligand binding assays cells were removed mechanically using calcium-free Earle's balanced salt solution (EBSS). Intact cells were collected by centrifugation and then lysed with 5 mM Tris-HCl and 5 mM MgCl2 at pH 7.4. Homogenates were centrifuged at 30,000×g for 30 minutes. The membranes were re-suspended in EBSS (US Biological, catalogue no. E0249-05) pH 7.4 to a concentration of 16 μg/mL. For competition binding studies, membrane preparations were incubated for 90 minutes at room temperature with various concentrations of compound and a single concentration of [^3H]-methylspiperone (Perkin Elmer, NET856) in a reaction volume of […]. Non-specific binding was determined in the presence of 4 μM (+)-butaclamol (Sigma-Aldrich, catalogue no. D033). Bound ligand was separated from unbound by filtration through GF/C filters using a PerkinElmer cell harvester and quantified on a Top-count (PerkinElmer). Ki values were determined using Cheng-Prusoff equation from observed IC50 values and ligand Kd values from separate saturation experiments.

D3 DAR [7] = biological target: T2, D3 DAR; assay: Go BRET activation assay, D3 DAR; format: cell-based; conditions: EC80 DA (30 nM)
Method: as §1

T1 sequence (P14416 whole entry): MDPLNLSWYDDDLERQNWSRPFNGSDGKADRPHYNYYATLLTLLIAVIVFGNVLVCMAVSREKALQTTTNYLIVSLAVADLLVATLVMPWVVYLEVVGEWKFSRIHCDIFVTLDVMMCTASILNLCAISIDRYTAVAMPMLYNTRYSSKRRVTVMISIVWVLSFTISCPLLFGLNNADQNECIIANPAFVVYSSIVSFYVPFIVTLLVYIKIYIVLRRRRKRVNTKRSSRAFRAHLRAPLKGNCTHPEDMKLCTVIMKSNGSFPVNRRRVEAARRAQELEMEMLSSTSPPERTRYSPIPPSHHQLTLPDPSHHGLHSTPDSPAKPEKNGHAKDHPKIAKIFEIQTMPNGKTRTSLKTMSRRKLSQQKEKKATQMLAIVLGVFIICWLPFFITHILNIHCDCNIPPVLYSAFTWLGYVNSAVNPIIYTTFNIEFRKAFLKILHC

antagonist activity at the D2 DAR, pERK (D2 DAR [1]): lacked antagonist activity | IC50 (D3 DAR [2]; agonist dopamine, read-out: Functional IC50 for decreasing the Emax of dopamine): 17 µM | IC50 (D3 DAR [2]; agonist pramipexole, read-out: Functional IC50 for decreasing the Emax of pramipexole): 14 µM | mode of antagonism in curve-shift assays (D3 DAR [2]; versus agonist (dopamine, pramipexole)): behaves in a non-competitive manner | D2 DAR Imax (D2 DAR [4]): NA (“NA” indicates not active) | antagonist activity at the D2 DAR, Go activation (D2 DAR [5]): lacked antagonist activity | inhibition of [3H]-methylspiperone binding to the D3 DAR (D3 DAR [6]): lacks ability to inhibit the binding | Emax (D3 DAR [7]; 5 min, read-out: D3 Go BRET Imax): > 100% | IC50 (D3 DAR [7]): 10 to 50 µM
Structure (SMILES): Cc1ccc(NS(=O)(=O)c2c(C)[nH]c(C)c2C(=O)N2CCCC2)cc1Cl [Cmp. 1]
off-target affinity / displacement in radioligand binding panel [3]: limited off-target affinity; also recorded: minimal displacement at only the H1 histamine and 5-HT6 serotonin receptors
